We go through ten compounds from patent US20030100549A1, “Inhibitors of c-Jun N-terminal kinases (JNK)” (priority 1999, published 2003).

Usually pKi stands for −log10 of the Ki, conventionally taken in molar units.

pKi: −log10 of the molar value. Bounds are passed on as bounds.

The target in the assay is T1, activated JNK3 (Homo sapiens, UniProt P53779).
T1 construct: One such construct encodes amino acid residues Ser40-Glu402 of JNK3α1 and is preceded by Met and Gly residues; Met-Gly (initiator Met plus Gly added for the NcoI site) (N); made in house; host or cells: E. coli BL21 (DE3)
The assay can be described thus: JNK3 inhibition, spectrophotometric coupled-enzyme assay. The class given is biochemical. The note with it: activated JNK3 10 nM, 10 μM ATP, 200 μM EGF receptor peptide, 30° C. The source says: A BLAST search of the EST database using the published JNK3α1 cDNA as a query identified an EST clone (#632588) that contained the entire coding sequence for human JNK3α1. Polymerase chain reactions (PCR) using pfu polymerase (Strategene) were used to introduce restriction sites into the cDNA for cloning into the pET-15B expression vector at the NcoI and BamHI sites. The protein was expressed in E. coli. Due to the poor solubility of the expressed full-length protein (Met 1-Gln 422), an N-terminally truncated protein starting at Ser residue at position 40 (Ser 40) was produced. This truncation corresponds to Ser 2 of JNK1 and JNK2 proteins, and is preceded by a methionine (initiation) and a glycine residue. The glycine residue was added in order to introduce an NcoI site for cloning into the expression vector. In addition, systematic C-terminal truncations were performed by PCR to identify a construct that give rise to diffraction-quality crystals. One such construct encodes amino acid residues Ser40-Glu402 of JNK3α1 and is preceded by Met and Gly residues.
5 mg of JNK3 was diluted to 0.5 mg/ml in 50 mM HEPES buffer, pH 7.5, containing 100 mM NaCl, 5 mM DTT, 20 mM MgCl2 and 1 mM ATP. GST-MKK7(DD) was added at a molar ratio of 1:2.5 GST-MKK7:JNK3. After incubation for 30 minutes at 25° C., the reaction mixture was concentrated 5-fold by ultrafiltration in a Centriprep-30 (Amicon, Beverly, Mass.), diluted to 10 ml and an additional 1 mM ATP added. This procedure was repeated three times to remove ADP and replenish ATP. The final addition of ATP was 5 mM and the mixture incubated overnight at 4° C.
The activated JNK3/GST-MKK7(DD) reaction mixture was exchanged into 50 mM HEPES buffer, pH 7.5, containing 5 mM DTT and 5% glycerol (w/v) by dialysis or ultrafiltration. The reaction mixture was adjusted to 1.1 M potassium phosphate, pH 7.5, and purified by hydrophobic interaction chromatography (at 25° C.) using a Rainin Hydropore column. […] Activated JNK3 (i.e. doubly phosphorylated JNK3) was stored at −70° C. at 0.25-1 mg/ml.
Compounds were assayed for the inhibition of JNK3 by a spectrophotometric coupled-enzyme assay. In this assay, a fixed concentration of activated JNK3 (10 nM) was incubated with various concentrations of a potential inhibitor dissolved in DMSO for 10 minutes at 30° C. in a buffer containing 0.1 M HEPES buffer, pH 7.5, containing 10 mM MgCl2, 2.5 mM phosphoenolpyruvate, 200 μM NADH, 150 μg/mL pyruvate kinase, 50 μg/mL lactate dehydrogenase, and 200 μM EGF receptor peptide. The EGF receptor peptide has the sequence […], and is a phosphoryl acceptor in the JNK3-catalyzed kinase reaction. The reaction was initiated by the addition of 10 μM ATP and the assay plate is inserted into the spectrophotometer's assay plate compartment that was maintained at 30° C. The decrease of absorbance at 340 nm was monitored as a function of time. The rate data as a function of inhibitor concentration was fitted to competitive inhibition kinetic model to determine the Ki.

T1 sequence (P53779 40-402): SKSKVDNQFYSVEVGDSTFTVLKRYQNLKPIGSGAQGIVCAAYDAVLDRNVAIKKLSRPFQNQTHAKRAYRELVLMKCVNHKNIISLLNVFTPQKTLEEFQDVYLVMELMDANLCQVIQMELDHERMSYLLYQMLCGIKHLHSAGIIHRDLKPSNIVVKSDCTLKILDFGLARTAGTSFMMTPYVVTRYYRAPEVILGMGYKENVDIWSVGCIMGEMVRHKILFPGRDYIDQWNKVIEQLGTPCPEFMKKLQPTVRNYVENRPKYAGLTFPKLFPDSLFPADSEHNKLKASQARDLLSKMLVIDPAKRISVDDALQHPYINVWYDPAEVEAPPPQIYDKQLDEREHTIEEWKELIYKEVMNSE

As for `O=C(Nc1ccccc1)c1c(Nc2ccccc2)[nH]c(=O)[nH]c1=O` [Cmpd 1], the negative-log Ki (pKi) is > 6.00.
Under `O=C(Nc1ccccn1)c1c(Nc2ccccc2)[nH]c(=O)[nH]c1=O` [Cmpd 2, 2,4-Dioxo-6-phenylamino-1,2,3,4-tetrahydro-pyrimidine-5-carboxylic acid pyridin-2-ylamide] stands ≤ 6.00; under `O=C(Nc1ccc(F)cc1)c1c(Nc2ccccc2)[nH]c(=O)[nH]c1=O` [Cmpd 3, 2,4-dioxo-6-phenylamino-1,2,3,4-tetrahydro-pyrimidine-5-carboxylic acid (4-fluoro-phenyl)-amide], ≤ 6.00.
Under `Cc1cccc(NC(=O)c2c(Nc3ccccc3)[nH]c(=O)[nH]c2=O)c1` [Cmpd 4] stands ≤ 6.00; under `Cc1ccccc1Nc1[nH]c(=O)[nH]c(=O)c1C(=O)Nc1ccccc1` [Cmpd 5], ≤ 6.00.
Under `Cc1ccccc1Nc1[nH]c(=O)[nH]c(=O)c1C(=O)Nc1ccc(F)cc1` [Cmpd 6] stands ≤ 6.00.
Turning to `Cc1cccc(NC(=O)c2c(Nc3ccccc3C)[nH]c(=O)[nH]c2=O)c1` [Cmpd 7], the pKi was ≤ 6.00.
Under `O=C(Nc1ccccc1)c1c(Nc2ccc(F)cc2)[nH]c(=O)[nH]c1=O` [Cmpd 8] stands ≤ 6.00; under `O=C(Nc1ccc(F)cc1)c1c(Nc2ccc(F)cc2)[nH]c(=O)[nH]c1=O` [Cmpd 9], ≤ 6.00.
`Cc1cccc(NC(=O)c2c(Nc3ccc(F)cc3)[nH]c(=O)[nH]c2=O)c1` [Cmpd 10]: the negative logarithm of the Ki (pKi) was ≤ 6.00.
